# Source: patent US20160251332A1, “Herbicidal Compounds” (SYNGENTA PARTICIPATIONS AG, priority 2013, published 2016)
# System: Amaranthus retroflexus
# Assay: Pre-emergence herbicidal activity, AMARE
# Assay type: in vivo
# Details: Application pre-emergence, 1000 g/Ha, evaluated after 13 days, scale 0-5
# Procedure: (§1) Seeds of a variety of test species were sown in standard soil in pots. After cultivation for one day (pre-emergence) under controlled conditions in a glasshouse (at 24/16° C., day/night; 14 hours light; 65% humidity), the plants were sprayed with an aqueous spray solution derived from the formulation of the technical active ingredient in acetone/water (50:50) solution containing 0.5% Tween 20 (polyoxyethelyene sorbitan monolaurate, CAS RN 9005-64-5). The test plants were then grown in a glasshouse under controlled conditions (at 24/16° C., day/night; 14 hours light; 65% humidity) and watered twice daily. After 13 days, the test was evaluated (5=total damage to plant; 0=no damage to plant).
row,Structure (SMILES),AMARE damage score
1,CN1CC(O)N(c2cc(C(F)(F)F)c(-c3ccncc3C#N)cn2)C1=O (centres unmarked) [Compound A29],5
2,CN1CC(O)N(c2cc(C(F)F)ccn2)C1=O (centres unmarked) [Compound A44],5
3,COCCOCc1cnc(N2C(=O)N(C)CC2O)cc1C(F)(F)F (centres unmarked) [Compound A52],5
4,CN1CC(O)N(c2cc(Cl)c(C(=O)NC(C)(C)C)cn2)C1=O (centres unmarked) [Compound A45],5
5,COCc1cnc(N2C(=O)N(C)CC2O)cc1C(F)(F)F (centres unmarked) [Compound A51],5

# System: Echinochloa crus-galli
# Assay: Pre-emergence herbicidal activity, ECHCG
# Assay type: in vivo
# Details: Application pre-emergence, 1000 g/Ha, evaluated after 13 days, scale 0-5
# Procedure: as §1
row,Structure (SMILES),ECHCG damage score
1,CN1CC(O)N(c2cc(C(F)(F)F)c(-c3ccncc3C#N)cn2)C1=O (centres unmarked) [Compound A29],5
2,CN1CC(O)N(c2cc(C(F)F)ccn2)C1=O (centres unmarked) [Compound A44],4
3,COCCOCc1cnc(N2C(=O)N(C)CC2O)cc1C(F)(F)F (centres unmarked) [Compound A52],5
4,CN1CC(O)N(c2cc(Cl)c(C(=O)NC(C)(C)C)cn2)C1=O (centres unmarked) [Compound A45],5
5,COCc1cnc(N2C(=O)N(C)CC2O)cc1C(F)(F)F (centres unmarked) [Compound A51],5

# System: Abutilon theophrasti
# Assay: Pre-emergence herbicidal activity, ABUTH
# Assay type: in vivo
# Details: Application pre-emergence, 1000 g/Ha, evaluated after 13 days, scale 0-5
# Procedure: as §1
row,Structure (SMILES),ABUTH damage score
1,CN1CC(O)N(c2cc(C(F)(F)F)c(-c3ccncc3C#N)cn2)C1=O (centres unmarked) [Compound A29],5
2,CN1CC(O)N(c2cc(C(F)F)ccn2)C1=O (centres unmarked) [Compound A44],5
3,COCCOCc1cnc(N2C(=O)N(C)CC2O)cc1C(F)(F)F (centres unmarked) [Compound A52],5
4,CN1CC(O)N(c2cc(Cl)c(C(=O)NC(C)(C)C)cn2)C1=O (centres unmarked) [Compound A45],5
5,COCc1cnc(N2C(=O)N(C)CC2O)cc1C(F)(F)F (centres unmarked) [Compound A51],5

# System: Setaria faberi
# Assay: Pre-emergence herbicidal activity, SETFA
# Assay type: in vivo
# Details: Application pre-emergence, 1000 g/Ha, evaluated after 13 days, scale 0-5
# Procedure: as §1
row,Structure (SMILES),SETFA damage score
1,CN1CC(O)N(c2cc(C(F)(F)F)c(-c3ccncc3C#N)cn2)C1=O (centres unmarked) [Compound A29],5
2,CN1CC(O)N(c2cc(C(F)F)ccn2)C1=O (centres unmarked) [Compound A44],5
3,COCCOCc1cnc(N2C(=O)N(C)CC2O)cc1C(F)(F)F (centres unmarked) [Compound A52],5
4,CN1CC(O)N(c2cc(Cl)c(C(=O)NC(C)(C)C)cn2)C1=O (centres unmarked) [Compound A45],5
5,COCc1cnc(N2C(=O)N(C)CC2O)cc1C(F)(F)F (centres unmarked) [Compound A51],5

# System: Zea mays
# Assay: Pre-emergence herbicidal activity, ZEAMX
# Assay type: in vivo
# Details: Application pre-emergence, 1000 g/Ha, evaluated after 13 days, scale 0-5
# Procedure: as §1
row,Structure (SMILES),ZEAMX damage score
1,CN1CC(O)N(c2cc(C(F)(F)F)c(-c3ccncc3C#N)cn2)C1=O (centres unmarked) [Compound A29],3
2,CN1CC(O)N(c2cc(C(F)F)ccn2)C1=O (centres unmarked) [Compound A44],2
3,COCCOCc1cnc(N2C(=O)N(C)CC2O)cc1C(F)(F)F (centres unmarked) [Compound A52],4
4,CN1CC(O)N(c2cc(Cl)c(C(=O)NC(C)(C)C)cn2)C1=O (centres unmarked) [Compound A45],3
5,COCc1cnc(N2C(=O)N(C)CC2O)cc1C(F)(F)F (centres unmarked) [Compound A51],3

# System: Amaranthus retroflexus
# Assay: Post-emergence herbicidal activity, AMARE
# Assay type: in vivo
# Details: Application post-emergence, 1000 g/Ha, evaluated after 13 days, scale 0-5
# Procedure: (§2) Seeds of a variety of test species were sown in standard soil in pots. After 8 days cultivation (post-emergence) under controlled conditions in a glasshouse (at 24/16° C., day/night; 14 hours light; 65% humidity), the plants were sprayed with an aqueous spray solution derived from the formulation of the technical active ingredient in acetone/water (50:50) solution containing 0.5% Tween 20 (polyoxyethelyene sorbitan monolaurate, CAS RN 9005-64-5). The test plants were then grown in a glasshouse under controlled conditions (at 24/16° C., day/night; 14 hours light; 65% humidity) and watered twice daily. After 13 days, the test was evaluated (5=total damage to plant; 0=no damage to plant).
row,Structure (SMILES),AMARE damage score
1,CN1CC(O)N(c2cc(C(F)(F)F)c(-c3ccncc3C#N)cn2)C1=O (centres unmarked) [Compound A29],5
2,CN1CC(O)N(c2cc(C(F)F)ccn2)C1=O (centres unmarked) [Compound A44],5
3,COCCOCc1cnc(N2C(=O)N(C)CC2O)cc1C(F)(F)F (centres unmarked) [Compound A52],5
4,CN1CC(O)N(c2cc(Cl)c(C(=O)NC(C)(C)C)cn2)C1=O (centres unmarked) [Compound A45],5
5,COCc1cnc(N2C(=O)N(C)CC2O)cc1C(F)(F)F (centres unmarked) [Compound A51],5

# System: Abutilon theophrasti
# Assay: Post-emergence herbicidal activity, ABUTH
# Assay type: in vivo
# Details: Application post-emergence, 1000 g/Ha, evaluated after 13 days, scale 0-5
# Procedure: as §2
row,Structure (SMILES),ABUTH damage score
1,CN1CC(O)N(c2cc(C(F)(F)F)c(-c3ccncc3C#N)cn2)C1=O (centres unmarked) [Compound A29],5
2,CN1CC(O)N(c2cc(C(F)F)ccn2)C1=O (centres unmarked) [Compound A44],5
3,COCCOCc1cnc(N2C(=O)N(C)CC2O)cc1C(F)(F)F (centres unmarked) [Compound A52],5
4,CN1CC(O)N(c2cc(Cl)c(C(=O)NC(C)(C)C)cn2)C1=O (centres unmarked) [Compound A45],5
5,COCc1cnc(N2C(=O)N(C)CC2O)cc1C(F)(F)F (centres unmarked) [Compound A51],5

# System: Setaria faberi
# Assay: Post-emergence herbicidal activity, SETFA
# Assay type: in vivo
# Details: Application post-emergence, 1000 g/Ha, evaluated after 13 days, scale 0-5
# Procedure: as §2
row,Structure (SMILES),SETFA damage score
1,CN1CC(O)N(c2cc(C(F)(F)F)c(-c3ccncc3C#N)cn2)C1=O (centres unmarked) [Compound A29],5
2,CN1CC(O)N(c2cc(C(F)F)ccn2)C1=O (centres unmarked) [Compound A44],5
3,COCCOCc1cnc(N2C(=O)N(C)CC2O)cc1C(F)(F)F (centres unmarked) [Compound A52],5
4,CN1CC(O)N(c2cc(Cl)c(C(=O)NC(C)(C)C)cn2)C1=O (centres unmarked) [Compound A45],5
5,COCc1cnc(N2C(=O)N(C)CC2O)cc1C(F)(F)F (centres unmarked) [Compound A51],5

# System: Echinochloa crus-galli
# Assay: Post-emergence herbicidal activity, ECHCG
# Assay type: in vivo
# Details: Application post-emergence, 1000 g/Ha, evaluated after 13 days, scale 0-5
# Procedure: as §2
row,Structure (SMILES),ECHCG damage score
1,CN1CC(O)N(c2cc(C(F)(F)F)c(-c3ccncc3C#N)cn2)C1=O (centres unmarked) [Compound A29],5
2,CN1CC(O)N(c2cc(C(F)F)ccn2)C1=O (centres unmarked) [Compound A44],5
3,COCCOCc1cnc(N2C(=O)N(C)CC2O)cc1C(F)(F)F (centres unmarked) [Compound A52],5
4,CN1CC(O)N(c2cc(Cl)c(C(=O)NC(C)(C)C)cn2)C1=O (centres unmarked) [Compound A45],5
5,COCc1cnc(N2C(=O)N(C)CC2O)cc1C(F)(F)F (centres unmarked) [Compound A51],5

# System: Zea mays
# Assay: Post-emergence herbicidal activity, ZEAMX
# Assay type: in vivo
# Details: Application post-emergence, 1000 g/Ha, evaluated after 13 days, scale 0-5
# Procedure: as §2
row,Structure (SMILES),ZEAMX damage score
1,CN1CC(O)N(c2cc(C(F)(F)F)c(-c3ccncc3C#N)cn2)C1=O (centres unmarked) [Compound A29],4
2,CN1CC(O)N(c2cc(C(F)F)ccn2)C1=O (centres unmarked) [Compound A44],4
3,COCCOCc1cnc(N2C(=O)N(C)CC2O)cc1C(F)(F)F (centres unmarked) [Compound A52],5
4,CN1CC(O)N(c2cc(Cl)c(C(=O)NC(C)(C)C)cn2)C1=O (centres unmarked) [Compound A45],5
5,COCc1cnc(N2C(=O)N(C)CC2O)cc1C(F)(F)F (centres unmarked) [Compound A51],3
